# In patent publication US20200164078A1, “APPLICABLE CHEMICAL COMPOSITION COMPRISING AN AGENT CONJUGATED TO A HYDROPHOBIC MOIETY AND A CARRIER” (TECHNISCHE UNIVERSITEIT EINDHOVEN, priority 2017, published 2020):
# Entries after “also recorded” stand apart in the source; their conditions may differ.
# Tests used:
# [1] = cited from earlier work
# [2] = Stability measurements by UV absorption in PBS; conditions: 200 mg/L, day 0-13
# CC531 cells = conditions: approximately 24 hour incubation; for Efficacy: MTT; for EC50: global sigmoidal fit of three assays, n=8, ±SD
# Experimental: After approximately 24 hour incubation in the cell incubator, 25 μL of freshly prepared MTT solution (5 mg/mL in PBS, filtered through 0.2 μm filter) was added to the wells and incubated for 2 hours. The medium was then completely removed and replaced with 125 μL 0.04 M HCl in isopropanol and incubated for 1 hour. After gently mixing, 100 μl of the isopropanol solution was transferred to a Costar EIA/RIA 96 transparent flat bottom wells plate. The absorbance was measured at 570 nm with 650 nm as reference. Absorbance of MTT was read out on a Tecan Saffire 2 plate reader and Tecan Spark 10M plate reader. Values were normalized to untreated cells. The complete assay was performed three times for CC531 cells. All data sets were used together to fit a global sigmoidal dose response curve with a shared slope and center, giving one EC50 per cell line. A concatenate fit was plotted through the MTT results for visualization. […] Every experiment n=8, ±SD.
# [3] = Release from 10 wt % bifunctional UPy-PEG10k hydrogel into PBS; type: physicochemical
# Experimental: The UPy-PEG10k liquid carrier composition was prepared by dissolving the UPy-PEG10k powder in PBS at elevated pH by stirring at 70° C. for 1 h using a magnetic stirrer (e.g. 10 mg in 90 μl PBS pH 11.7 for a 10 wt % hydrogel). Afterwards the viscous solution was cooled to RT with a resulting pH of approximately 9.0. […] The obtained composition is a liquid composition at this pH.
# 100 μL of the solutions were transferred to Millicell hanging cell culture inserts (PIEP12R48/MCEP24H48) and immediately placed in a 24-well plate with 600 μL PBS per well. Contact with the neutral PBS through the membrane of the insert results in gelation of the liquid carrier, forming the hydrogel. At set time-points the PBS was refreshed and the removed PBS was analyzed for MMC or MPC content. Analysis was performed by measuring UV absorption and converted to concentration via predetermined standard curves. […] […]. Release of MPC can be correlated to the erosion of the hydrogel. The initial goal to couple cholesterol to MMC to slow down the release from the hydrogel is accomplished hereby.
molecule,measurement,setting,value
CC(C)CCC[C@@H](C)[C@H]1CC[C@H]2[C@@H]3CC=C4C[C@@H](O)CC[C@]4(C)[C@H]3CC[C@]12C [Cholesterol],Water solubility,[1],Less than 0.000095 mg/mL)
COc1cccc2c1C(=O)c1c(O)c3c(c(O)c1C2=O)C[C@@](O)(C(C)=O)C[C@@H]3O[C@H]1C[C@H](N)[C@H](O)[C@H](C)O1 [Daunorubicin],Water solubility,[1],39 µg/mL
COc1cccc2c1C(=O)c1c(O)c3c(c(O)c1C2=O)C[C@@](O)(C(=O)CO)C[C@@H]3O[C@H]1C[C@H](N)[C@H](O)[C@H](C)O1 [Doxorubicin],Water solubility,[1],1180 µg/mL
Nc1ccn([C@@H]2O[C@H](CO)[C@@H](O)C2(F)F)c(=O)n1 [Gemcitabine],Water solubility,[1],51300 µg/mL
"CO[C@@]12[C@H](COC(N)=O)C3=C(C(=O)C(C)=C(N)C3=O)N1C[C@@H]1N[C@@H]12 [MMC, Mitomycin C]",Stability (UV absorption spectra),"[2]; pH 6.5, 37° C.",unstable; also recorded: degrades
same,Stability (UV absorption spectra),"[2]; pH 7.4, 4° C.",stable
same,Stability (UV absorption spectra),"[2]; pH 7.4, 37° C.",stable
same,Efficacy,CC531 cells,approximately 100%
same,EC50,CC531 cells,19.6 ± 3.2 µM
same,Release (%),"[3]; 0.3 mM in gel, time 0.05 day",38.93%
same,Release (%),"[3]; 0.3 mM in gel, time 0.21 day",69.58%
same,Release (%),"[3]; 0.3 mM in gel, time 1.00 day",86.44%
same,Release (%),"[3]; 3 mM in gel, time 0.06 day",34.09%
same,Release (%),"[3]; 3 mM in gel, time 0.17 day",58.33%
same,Release (%),"[3]; 3 mM in gel, time 0.38 day",79.92%
same,Release (%),"[3]; 3 mM in gel, time 1.00 day",95.83%
same,Release (%),"[3]; 3 mM in gel, time 2.00 day",102.65%
same,Time of release from the hydrogel,"[3]; 10 wt % UPy-PEG10k hydrogel, diffusion kinetics",approximately 24 hours
Mitomycin-PEG24-Cholesterol [MPC],Efficacy,CC531 cells,approximately 100%
same,EC50,CC531 cells,3.8 ± 1.1 µM
